Laboratory results taken from paper PMC8621456, “New Investigations with Lupane Type A-Ring Azepane Triterpenoids for Antimycobacterial Drug Candidate Design” (International Journal of Molecular Sciences, 2021).
Converted amounts (≈) assume the structure as drawn. Where two headings read alike, the source gives them in different places. Marks after values point to notes of the source that are not given here.

Legend:
H37Rv (rpoB^S450L) [1] = format: cell-based, Mycobacterium tuberculosis
H37Rv (katG^del) = assay: microbe, parasite or virus in culture; format: cell-based; conditions: Mycobacterium tuberculosis, isoniazid mono-resistant strain
H37Rv (gyrA^D94K) [2] = format: cell-based, Mycobacterium tuberculosis
[3] = test system: M. tuberculosis strain H37Rv; format: cell-based, Mycobacterium tuberculosis; conditions: 2× the MIC
H37Rv (rpoB^S450L) [4] = conditions: cited from earlier work
H37Rv (gyrA^D94K) [5] = conditions: cited from earlier work

SMILES	MIC (µM) H37Rv (rpoB^S450L) (H37Rv (rpoB^S450L) [1]) [µM]	MIC (H37Rv (katG^del)) [µM]	MIC (µM) H37Rv (gyrA^D94K) (H37Rv (gyrA^D94K) [2]) [µM]	FoR (order of magnitude stated in text) [3]	MIC (µM) H37Rv (rpoB^S450L) (H37Rv (rpoB^S450L) [4])	MIC (µM) H37Rv (gyrA^D94K) (H37Rv (gyrA^D94K) [5])
O=[N+]([O-])c1cn2c(n1)OC[C@@H](OCc1ccc(OC(F)(F)F)cc1)C2 [Pretomanid, reference compound]	0.06 (≈ 0.0216 µg/mL)	0.06 (≈ 0.0216 µg/mL)	0.125 (≈ 0.0449 µg/mL)	–	–	–
C=C(C)[C@@H]1CC[C@]2(COS(=O)(=O)c3ccc(C)cc3)CC[C@]3(C)[C@H](CC[C@@H]4[C@@]5(C)CCCNC(C)(C)[C@@H]5CC[C@]43C)[C@@H]12 [Compound 6]	4 (≈ 2.38 µg/mL)	4 (≈ 2.38 µg/mL)	4 (≈ 2.38 µg/mL)	–	–	–
C=C(C)[C@@H]1CC[C@]2(CN)CC[C@]3(C)[C@H](CC[C@@H]4[C@@]5(C)CCCNC(C)(C)[C@@H]5CC[C@]43C)[C@@H]12 [Compound 3]	4 (≈ 1.76 µg/mL)	4 (≈ 1.76 µg/mL)	8 (≈ 3.53 µg/mL)	–	–	–
C=C(C)[C@@H]1CC[C@]2(C)CC[C@]3(C)[C@H](CC[C@@H]4[C@@]5(C)CCCNC(C)(C)[C@@H]5CC[C@]43C)[C@@H]12 [Compound 2, azepano-lupeol]	4 (≈ 1.7 µg/mL)	4 (≈ 1.7 µg/mL)	4 (≈ 1.7 µg/mL)	–	–	–
CO[C@H]1/C=C/O[C@@]2(C)Oc3c(C)c(O)c4c(O)c(c(/C=N/N5CCN(C)CC5)c(O)c4c3C2=O)NC(=O)/C(C)=C\C=C\[C@H](C)[C@H](O)[C@@H](C)[C@@H](O)[C@@H](C)[C@H](OC(C)=O)[C@@H]1C [Rifampin, reference compound]	>1	≤ 0.004	≤0.004	–	–	–
C=C(C)[C@@H]1CC[C@]2(COC(C)=O)CC[C@]3(C)[C@H](CC[C@@H]4[C@@]5(C)CCCN(C(=O)c6cccnc6)C(C)(C)[C@@H]5CC[C@]43C)[C@@H]12 [Compound 12]	32 (≈ 18.8 µg/mL)	–	>32	–	–	–
CC1(C)CCC23CCC4(C)C(CCC5C6(C)CCCNC(C)(C)C6CCC54C)C2C1OC3 (centres unmarked) [Compound 17]	8 (≈ 3.53 µg/mL)	8 (≈ 3.53 µg/mL)	16 (≈ 7.07 µg/mL)	–	–	–
C=C(C)[C@@H]1CC[C@]2(C=NNC(=O)c3ccncc3)CC[C@]3(C)[C@H](CC[C@@H]4[C@@]5(C)CCCNC(C)(C)[C@@H]5CC[C@]43C)[C@@H]12 [Compound 7]	0.5 (≈ 0.279 µg/mL)	8 (≈ 4.47 µg/mL)	0.5 (≈ 0.279 µg/mL)	–	–	–
NNC(=O)c1ccncc1 [Isoniazid, reference compound]	0.06 (≈ 0.00823 µg/mL)	> 2	0.06 (≈ 0.00823 µg/mL)	10^−4	–	–
C=C(CBr)[C@@H]1CC[C@]2(COC(C)=O)CC[C@]3(C)[C@H](CC[C@@H]4[C@@]5(C)CCCNC(C)(C)[C@@H]5CC[C@]43C)[C@@H]12 [Compound 14]	>32	16 (≈ 9 µg/mL)	>32	–	–	–
COc1c(N2C[C@@H]3CCCN[C@@H]3C2)c(F)cc2c(=O)c(C(=O)O)cn(C3CC3)c12 [Moxifloxacin, reference compound]	0.03 (≈ 0.012 µg/mL)	0.03 (≈ 0.012 µg/mL)	>2	–	–	–
C=C(C)[C@@H]1CC[C@]2(COC(=O)c3cccnc3)CC[C@]3(C)[C@H](CC[C@@H]4[C@@]5(C)CCCNC(C)(C)[C@@H]5CC[C@]43C)[C@@H]12 [Compound 5]	8 (≈ 4.37 µg/mL)	4 (≈ 2.19 µg/mL)	8 (≈ 4.37 µg/mL)	–	–	–
CC(=O)[C@@H]1CC[C@]2(COS(=O)(=O)c3ccc(C)cc3)CC[C@]3(C)[C@H](CC[C@@H]4[C@@]5(C)CCCNC(C)(C)[C@@H]5CC[C@]43C)[C@@H]12 [Compound 13]	8 (≈ 4.78 µg/mL)	8 (≈ 4.78 µg/mL)	16 (≈ 9.57 µg/mL)	–	–	–
C=C(C)[C@@H]1CC[C@]2(COC(=O)c3ccccc3C(=O)O)CC[C@]3(C)[C@H](CC[C@@H]4[C@@]5(C)CCCNC(C)(C)[C@@H]5CC[C@]43C)[C@@H]12 [Compound 4]	8 (≈ 4.72 µg/mL)	8 (≈ 4.72 µg/mL)	16 (≈ 9.44 µg/mL)	–	–	–
C=C(C)[C@@H]1CC[C@]2(COC(C)=O)CC[C@]3(C)[C@H](CC[C@@H]4[C@@]5(C)CCCN(C(C)=O)C(C)(C)[C@@H]5CC[C@]43C)[C@@H]12 [Compound 11]	4 (≈ 2.1 µg/mL)	–	8 (≈ 4.21 µg/mL)	–	–	–
C=C(CN=[N+]=[N-])[C@@H]1CC[C@]2(COC(C)=O)CC[C@]3(C)[C@H](CC[C@@H]4[C@@]5(C)CCCNC(C)(C)[C@@H]5CC[C@]43C)[C@@H]12 [Compound 15]	>32	32 (≈ 16.8 µg/mL)	>32	–	–	–
C=C(C)[C@@H]1CC[C@]2(C(=O)NC3CCCCC3)CC[C@]3(C)[C@H](CC[C@@H]4[C@@]5(C)CCCNC(C)(C)[C@@H]5CC[C@]43C)[C@@H]12 [Compound 10]	4 (≈ 2.15 µg/mL)	4 (≈ 2.15 µg/mL)	4 (≈ 2.15 µg/mL)	–	–	–
C=C(C)[C@@H]1CC[C@]2(C(=O)N3CCN(C)CC3)CC[C@]3(C)[C@H](CC[C@@H]4[C@@]5(C)CCCNC(C)(C)[C@@H]5CC[C@]43C)[C@@H]12 [Compound 9]	2 (≈ 1.08 µg/mL)	1 (≈ 0.538 µg/mL)	2 (≈ 1.08 µg/mL)	–	–	–
C#CCNC(=O)[C@]12CC[C@@H](C(=C)C)[C@@H]1[C@H]1CC[C@@H]3[C@@]4(C)CCCNC(C)(C)[C@@H]4CC[C@@]3(C)[C@]1(C)CC2 [Compound 20, 17-(Propargyl)-3-deoxo-3a-homo-3a-aza-lup-20(29)-en-carboxamide]	8 (≈ 3.94 µg/mL)	4 (≈ 1.97 µg/mL)	4 (≈ 1.97 µg/mL)	–	–	–
C=C(C)[C@@H]1CC[C@]2(CO)CC[C@]3(C)[C@H](CC[C@@H]4[C@@]5(C)CCCNC(C)(C)[C@@H]5CC[C@]43C)[C@@H]12 [Compound 1, azepanobetulin]	–	–	–	10^−6	4 * µM	4 * µM
CC(C)=C1CCC=C2CC[C@]3(C)[C@H](CC[C@@H]4[C@@]5(C)CCCNC(C)(C)[C@@H]5CC[C@]43C)[C@H]21 [Compound 18]	16 (≈ 6.78 µg/mL)	–	8 (≈ 3.39 µg/mL)	10^−6	–	–
C=C(C)[C@@H]1CC[C@]2(C(=O)NC(CO)Cc3ccccc3)CC[C@]3(C)[C@H](CC[C@@H]4[C@@]5(C)CCCNC(C)(C)[C@@H]5CC[C@]43C)[C@@H]12 (some centres unmarked) [Compound 8]	4 (≈ 2.36 µg/mL)	4 (≈ 2.36 µg/mL)	4 (≈ 2.36 µg/mL)	–	–	–
